The values that follow come from patent US20260184663A1, “INDENE COMPOUNDS, PHARMACEUTICAL COMPOSITIONS THEREOF, AND THEIR THERAPEUTIC APPLICATIONS” (NucMito Pharmaceuticals co. Ltd., priority 2022, published 2026).

What all share (assay type): cell-based
Assay [1] deals with MDA-MB-231 (breast cancer). Kind of assay: Antiproliferative activity (CCK-8 cell viability), MDA-MB-231. The following applies: Homo sapiens, 72 h; for inhibition at 3.3 µM: Compound concentration: 3.3 μM; for inhibition at 3.3 µM / inhibition at 10 µM: read-out: Antiproliferative activity in cancerous cells, MDA-MB-231 (inhibition of cell growth); for inhibition at 10 µM: Compound concentration: 10 μM. On the procedure: (§1) The antiproliferative activity of a compound was determined in the following cell lines: MDA-MB-231 (breast cancer), HepG2 (liver cancer), SW480 (colon cancer), B16F10 (malignant melanoma), A431 (epidermoid carcinoma), A549 (lung adenocarcinoma), and HeLa (cervical cancer). MDA-MB-231, HepG2, SW480, B16F10, and A431 cells were cultured in Dulbecco's modified Eagle's medium (DMEM) containing 10% fetal bovine serum (FBS). HeLa cells were cultured in MEM/EBSS (MEM) containing 10% FBS. A549 cells were maintained in Kaighn's modification of Ham's F-12 medium containing 10% FBS. A Cell Counting Kit-8 (CCK-8) was used to measure the cell viability of different cells following treatment with the compound.
(§2) Briefly cells were seeded in a 96-well plate at a density of 2,000-5,000 cells/well. Following attachment, the cells were treated with the compound in media at a compound concentration of 3.3 μM, 10 μM, or 30 μM. After the cells were incubated at 37° C. for 72 h, a CCK-8 solution (10 μL) was added to each well. After incubation at 37° C. for 4 h, the absorbance value of each well was determined using a multi-well plate reader at 450 nm. The wells treated with DMSO were taken as a vehicle control. Data were also obtained similarly for all the replicates and the percentage of cell viability was determined with respect to the DMSO-treated cells. The results are summarized in Tables 2-4, wherein A represents no less than […] of cell growth; B represents no less than 30% but less than 50% inhibition of cell growth; and C represents less than 30% inhibition of cell growth.

In another assay the test system is HepG2 (liver cancer). Kind of assay: Antiproliferative activity (CCK-8 cell viability), HepG2. The following applies: Homo sapiens, 72 h; for inhibition at 3.3 µM: Compound concentration: 3.3 μM; for inhibition at 3.3 µM / inhibition at 10 µM: read-out: Antiproliferative activity in cancerous cells, HepG2 (inhibition of cell growth); for inhibition at 10 µM: Compound concentration: 10 μM. The procedure:
as §1, §2

A further assay has as its system SW480 (colon cancer). The experiment in a line: Antiproliferative activity (CCK-8 cell viability), SW480. The following applies: Homo sapiens, 72 h; for inhibition at 3.3 µM: Compound concentration: 3.3 μM; for inhibition at 3.3 µM / inhibition at 10 µM: read-out: Antiproliferative activity in cancerous cells, SW480 (inhibition of cell growth); for inhibition at 10 µM: Compound concentration: 10 μM. The procedure:
as §1, §2

Assay [2] relates to B16F10 (malignant melanoma). The experiment in a line: Antiproliferative activity (CCK-8 cell viability), B16F10. The following applies: Mus musculus, 72 h; for inhibition at 3.3 µM: B16-F10, Compound concentration: 3.3 μM; for inhibition at 3.3 µM / inhibition at 10 µM: read-out: Antiproliferative activity in cancerous cells, B16F10 (inhibition of cell growth); for inhibition at 10 µM: B16-F10, Compound concentration: 10 μM. The procedure: as §1, §2

Assay [3] relates to A431 (epidermoid carcinoma). Kind of assay: Antiproliferative activity (CCK-8 cell viability), A431. The following applies: Homo sapiens, 72 h; for inhibition at 3.3 µM: A-431, Compound concentration: 3.3 μM; for inhibition at 3.3 µM / inhibition at 10 µM: read-out: Antiproliferative activity in cancerous cells, A431 (inhibition of cell growth); for inhibition at 10 µM: A-431, Compound concentration: 10 μM. On the procedure: as §1, §2

The test system of assay [4] is A549 (lung adenocarcinoma). The experiment in a line: Antiproliferative activity (CCK-8 cell viability), A549. The following applies: Homo sapiens, 72 h; for inhibition at 3.3 µM: Compound concentration: 3.3 μM; for inhibition at 3.3 µM / inhibition at 10 µM: read-out: Antiproliferative activity in cancerous cells, A549 (inhibition of cell growth); for inhibition at 10 µM: Compound concentration: 10 μM. The procedure: as §1, §2

The subject of another assay is HeLa (cervical cancer). The experiment in a line: Antiproliferative activity (CCK-8 cell viability), HeLa. The following applies: Homo sapiens, 72 h, read-out: Antiproliferative activity in cancerous cells, HELA (inhibition of cell growth); for inhibition at 3.3 µM: Compound concentration: 3.3 μM; for inhibition at 10 µM: Compound concentration: 10 μM. On the procedure: as §1, §2

Bounds are passed on as bounds.

In the case of `COc1ccc(S(=O)(=O)Cc2ccc(/C=C3/C(C)=C(CC(=O)O)c4cc(F)ccc43)cc2)cc1` [B46, (Z)-2-(5-Fluoro-1-(4-(((4-methoxyphenyl)sulfonyl)methyl)benzylidene)-2-methyl-1H-inden-3-yl)acetic acid], the inhibition at 3.3 µM was under 30% in assay [1]; 30 to 50% in the assay with HepG2 (liver cancer); 30 to 50% in the assay with SW480 (colon cancer); under 30% in assay [2]; 30 to 50% in assay [3]; under 30% in assay [4]. The inhibition at 3.3 µM with HeLa (cervical cancer) was under 30%. For the same compound, the inhibition at 10 µM was 30 to 50% in assay [1]; 30 to 50% with HepG2 (liver cancer); 30 to 50% in the assay with SW480 (colon cancer); at least 50% in assay [2]; at least 50% in assay [3]; under 30% in assay [4]. In addition, the inhibition at 10 µM in the assay on HeLa (cervical cancer) is at least 50%.
With `CC1=C(CC(=O)O)c2cc(F)ccc2/C1=C\c1ccc(CCOC2CCCCO2)cc1` (centres unmarked) [B47, (Z)-2-(5-Fluoro-2-methyl-1-(4-(2-((tetrahydro-2H-pyran-2-yl)oxy)ethyl)-benzylidene)-1H-inden-3-yl)acetic acid], the inhibition at 3.3 µM is at least 50% in assay [1]; 30 to 50% in the assay on HepG2 (liver cancer); under 30% in the assay on SW480 (colon cancer); at least 50% in assay [2]; 30 to 50% in assay [3]; under 30% in assay [4]. Moreover, the inhibition at 3.3 µM in the assay on HeLa (cervical cancer) is at least 50%. In addition, the inhibition at 10 µM in assay [1] was at least 50%; with HepG2 (liver cancer), at least 50%; in the assay on SW480 (colon cancer), at least 50%; in assay [2], at least 50%; in assay [3], 30 to 50%; in assay [4], at least 50%. The inhibition at 10 µM in the assay with HeLa (cervical cancer) is at least 50%.
Turning to `CCc1ccc2c(c1)/C(=C\c1ccc(COc3ccccc3)cc1)C(C)=C2CC(=O)O` [B48, (Z)-2-(6-Ethyl-2-methyl-1-(4-(phenoxymethyl)benzylidene)-1H-inden-3-yl)acetic acid], the inhibition at 3.3 µM is under 30% in assay [1]; under 30% in the assay with HepG2 (liver cancer); under 30% in the assay on SW480 (colon cancer); 30 to 50% in assay [2]; at least 50% in assay [3]; under 30% in assay [4]. Besides, the inhibition at 3.3 µM in the assay with HeLa (cervical cancer) lay within 30 to 50%. The inhibition at 10 µM in assay [1] is under 30%; in the assay with HepG2 (liver cancer), under 30%; with SW480 (colon cancer) it was under 30%; in assay [2], 30 to 50%; in assay [3], at least 50%; in assay [4], 30 to 50%. Also, the inhibition at 10 µM in the assay on HeLa (cervical cancer) was at least 50%. The inhibition at 30 µM in assay [1] (Compound concentration: 30 μM, read-out: Antiproliferative activity in cancerous cells, MDA-MB-231) was under 30%; with HepG2 (liver cancer) (Compound concentration: 30 μM, read-out: Antiproliferative activity in cancerous cells, HepG2), under 30%; with SW480 (colon cancer) (Compound concentration: 30 μM, read-out: Antiproliferative activity in cancerous cells, SW480), under 30%; in assay [2] (B16-F10, Compound concentration: 30 μM, read-out: Antiproliferative activity in cancerous cells, B16F10) it was 30 to 50%; in assay [4] (Compound concentration: 30 μM, read-out: Antiproliferative activity in cancerous cells, A549) it was 30 to 50%.
With `CC1=C(CC(=O)O)c2cc(F)ccc2/C1=C\c1cccc(CSc2ccc(F)cc2)c1` [B49, (Z)-2-(5-Fluoro-1-(3-(((4-fluorophenyl)thio)methyl)benzylidene)-2-methyl-1H-inden-3-yl)acetic acid], the inhibition at 3.3 µM in assay [1] is at least 50%; in the assay with HepG2 (liver cancer), under 30%; in the assay on SW480 (colon cancer), under 30%; in assay [2], at least 50%; in assay [3], under 30%; in assay [4], under 30%. Moreover, the inhibition at 3.3 µM in the assay on HeLa (cervical cancer) was under 30%. For the same compound, the inhibition at 10 µM in assay [1] was at least 50%; in the assay on HepG2 (liver cancer) it was at least 50%; in the assay on SW480 (colon cancer) it was at least 50%; in assay [2], at least 50%; in assay [3], 30 to 50%; in assay [4], 30 to 50%. The inhibition at 10 µM in the assay on HeLa (cervical cancer) is at least 50%.
As for `CC1=C(CC(=O)O)c2cc(F)ccc2/C1=C\c1cccc(C[S+]([O-])c2ccc(F)cc2)c1` (centres unmarked) [B50, (Z)-2-(5-Fluoro-1-(3-(((4-fluorophenyl)sulfinyl)methyl)benzylidene)-2-methyl-1H-inden-3-yl)acetic acid], the inhibition at 3.3 µM in assay [1] was 30 to 50%; in the assay with HepG2 (liver cancer), under 30%; with SW480 (colon cancer), under 30%; in assay [2], at least 50%; in assay [3] it was under 30%; in assay [4], under 30%. Besides, in the assay with HeLa (cervical cancer), the inhibition at 3.3 µM is under 30%. In addition, the inhibition at 10 µM in assay [1] is at least 50%; in the assay with HepG2 (liver cancer), under 30%; with SW480 (colon cancer), 30 to 50%; in assay [2], at least 50%; in assay [3], under 30%; in assay [4] it was under 30%. Further, the inhibition at 10 µM with HeLa (cervical cancer) was 30 to 50%. The inhibition at 30 µM in assay [3] (A-431, Compound concentration: 30 μM, read-out: Antiproliferative activity in cancerous cells, A431) fell in the range of 30 to 50%.
With `CC1=C(CC(=O)O)c2cc(F)ccc2/C1=C\c1cccc(CS(=O)(=O)c2ccc(F)cc2)c1` [B51, (Z)-2-(5-Fluoro-1-(3-(((4-fluorophenyl)sulfonyl)methyl)benzylidene)-2-methyl-1H-inden-3-yl)acetic acid], the inhibition at 3.3 µM in assay [1] is 30 to 50%; in the assay with HepG2 (liver cancer), under 30%; with SW480 (colon cancer), under 30%; in assay [2] it was under 30%; in assay [3], 30 to 50%; in assay [4], under 30%. Besides, the inhibition at 3.3 µM with HeLa (cervical cancer) lay within 30 to 50%. The inhibition at 10 µM is at least 50% in assay [1]; under 30% with HepG2 (liver cancer); 30 to 50% with SW480 (colon cancer); at least 50% in assay [2]; 30 to 50% in assay [3]; 30 to 50% in assay [4]. Besides, the inhibition at 10 µM in the assay with HeLa (cervical cancer) is at least 50%.
Turning to `CCc1ccc2c(c1)C(CC(=O)O)=C(C)/C2=C/c1ccc(COc2ccc(F)cc2)cc1` [B52, (Z)-2-(5-Ethyl-1-(4-((4-fluorophenoxy)methyl)benzylidene)-2-methyl-1H-inden-3-yl)acetic acid], the inhibition at 3.3 µM is at least 50% in assay [1]; under 30% with HepG2 (liver cancer); 30 to 50% with SW480 (colon cancer); at least 50% in assay [2]; 30 to 50% in assay [3]; 30 to 50% in assay [4]. In the assay with HeLa (cervical cancer), the inhibition at 3.3 µM was 30 to 50%. Besides, the inhibition at 10 µM (in assay [1]; with HepG2 (liver cancer); with SW480 (colon cancer); in assay [2]; in assay [3]; in assay [4]) was at least 50% in each case. The inhibition at 10 µM with HeLa (cervical cancer) is at least 50%.
